Experimental data as given in ChEMBL document CHEMBL3885881, “DrugMatrix”.

Species on record: Rattus norvegicus
Experiment: DrugMatrix - Regimen: Daily Repeat
Format: toxicity, organism-based, Sprague-Dawley
Design: regimen Daily Repeat, gender Male, age 6-8 weeks
Details: in vivo, po, route oral GAVAGE, […]; for ABSOLUTE BASOPHIL / ABSOLUTE EOSINOPHIL / ABSOLUTE LYMPHOCYTE / ABSOLUTE MONOCYTE / ABSOLUTE SEGMENTED NEUTROPHIL / BASOPHIL / EOSINOPHIL / ERYTHROCYTE COUNT / HEMATOCRIT / HEMOGLOBIN / LEUKOCYTE COUNT / LYMPHOCYTE / MEAN CORPUSCULAR HEMOGLOBIN / MEAN CORPUSCULAR HEMOGLOBIN CONCENTRATION / MEAN CORPUSCULAR VOLUME / MONOCYTE / NEUTROPHIL / NUCLEATED RED BLOOD CELLS / PLATELET COUNT: tissue Blood; for ALANINE AMINOTRANSFERASE / ALBUMIN / ALKALINE PHOSPHATASE / ASPARTATE AMINOTRANSFERASE / BLOOD UREA NITROGEN / CARBON DIOXIDE / CHLORIDE / CHOLESTEROL / CREATINE PHOSPHOKINASE / CREATININE / GLUCOSE / LACTATE DEHYDROGENASE / LIPASE / PHOSPHORUS / POTASSIUM / SODIUM / TOTAL BILIRUBIN / TOTAL PROTEIN / URIC ACID: tissue Plasma
[1] = 24 mg/kg, 72 h, dose level Low, time 3 day
[2] = 24 mg/kg, 120 h, dose level Low, time 5 day
[3] = 770 mg/kg, 72 h, dose level High, time 3 day
[4] = 770 mg/kg, 120 h, dose level High, time 5 day

## COc1c(N2CCNC(C)C2)c(F)cc2c(=O)c(C(=O)O)cn(C3CC3)c12 (configuration not stated) [GATIFLOXACIN]
[1]
  ABSOLUTE BASOPHIL: 0 CELLS/uL
  ABSOLUTE EOSINOPHIL: 38.67 CELLS/uL
  ABSOLUTE LYMPHOCYTE: 12036 CELLS/uL
  ABSOLUTE MONOCYTE: 222.67 CELLS/uL
  ABSOLUTE SEGMENTED NEUTROPHIL: 769.33 CELLS/uL
  BASOPHIL: 0%
  EOSINOPHIL: 0.33%
  ERYTHROCYTE COUNT: 5.26 x10E6/uL
  HEMATOCRIT: 34.07%
  HEMOGLOBIN: 13.73 G/DL
  LEUKOCYTE COUNT: 13.07 x10E3/uL
  LYMPHOCYTE: 92%
  MEAN CORPUSCULAR HEMOGLOBIN: 26.17 pg
  MEAN CORPUSCULAR HEMOGLOBIN CONCENTRATION: 40.3 G/DL
  MEAN CORPUSCULAR VOLUME: 64.87 fL
  MONOCYTE: 1.67%
  NEUTROPHIL: 6%
  NUCLEATED RED BLOOD CELLS: 0 /100WBC
  PLATELET COUNT: 1216.33 x10E3/uL
  ALANINE AMINOTRANSFERASE: 96.67 u/L
  ALBUMIN: 4.1 G/DL
  ALKALINE PHOSPHATASE: 435.33 u/L
  ASPARTATE AMINOTRANSFERASE: 106.67 u/L
  BLOOD UREA NITROGEN: 15 mg/dL
  CARBON DIOXIDE: 24.67 mmol/L
  CHLORIDE: 100.67 MEQ/L
  CHOLESTEROL: 75 mg/dL
  CREATINE PHOSPHOKINASE: 818.33 u/L
  CREATININE: 0.2 mg/dL
  GLUCOSE: 183 mg/dL
  LACTATE DEHYDROGENASE: 221.67 u/L
  LIPASE: 10.33 u/L
  PHOSPHORUS: 13.13 mg/dL
  POTASSIUM: 6.33 MEQ/L
  SODIUM: 143.27 MEQ/L
  TOTAL BILIRUBIN: 0.17 mg/dL
  TOTAL PROTEIN: 5.77 G/DL
  URIC ACID: 1.7 mg/dL
[2]
  ABSOLUTE BASOPHIL: 0 CELLS/uL
  ABSOLUTE EOSINOPHIL: 0 CELLS/uL
  ABSOLUTE LYMPHOCYTE: 16055.67 CELLS/uL
  ABSOLUTE MONOCYTE: 361 CELLS/uL
  ABSOLUTE SEGMENTED NEUTROPHIL: 1450 CELLS/uL
  BASOPHIL: 0%
  EOSINOPHIL: 0%
  ERYTHROCYTE COUNT: 5.93 x10E6/uL
  HEMATOCRIT: 37%
  HEMOGLOBIN: 14.63 G/DL
  LEUKOCYTE COUNT: 17.87 x10E3/uL
  LYMPHOCYTE: 90%
  MEAN CORPUSCULAR HEMOGLOBIN: 24.73 pg
  MEAN CORPUSCULAR HEMOGLOBIN CONCENTRATION: 39.57 G/DL
  MEAN CORPUSCULAR VOLUME: 62.47 fL
  MONOCYTE: 2%
  NEUTROPHIL: 8%
  NUCLEATED RED BLOOD CELLS: 0 /100WBC
  PLATELET COUNT: 1096 x10E3/uL
  ALANINE AMINOTRANSFERASE: 69 u/L
  ALBUMIN: 4.2 G/DL
  ALKALINE PHOSPHATASE: 431.33 u/L
  ASPARTATE AMINOTRANSFERASE: 90.67 u/L
  BLOOD UREA NITROGEN: 13 mg/dL
  CARBON DIOXIDE: 27.67 mmol/L
  CHLORIDE: 100.67 MEQ/L
  CHOLESTEROL: 70.67 mg/dL
  CREATINE PHOSPHOKINASE: 342 u/L
  CREATININE: 0.2 mg/dL
  GLUCOSE: 149.33 mg/dL
  LACTATE DEHYDROGENASE: 413 u/L
  LIPASE: 10.33 u/L
  PHOSPHORUS: 11.8 mg/dL
  POTASSIUM: 5.99 MEQ/L
  SODIUM: 145.2 MEQ/L
  TOTAL BILIRUBIN: 0.2 mg/dL
  TOTAL PROTEIN: 5.97 G/DL
  URIC ACID: 1.43 mg/dL
[3]
  ABSOLUTE BASOPHIL: 0 CELLS/uL
  ABSOLUTE EOSINOPHIL: 0 CELLS/uL
  ABSOLUTE LYMPHOCYTE: 12067.33 CELLS/uL
  ABSOLUTE MONOCYTE: 215.33 CELLS/uL
  ABSOLUTE SEGMENTED NEUTROPHIL: 450.67 CELLS/uL
  BASOPHIL: 0%
  EOSINOPHIL: 0%
  ERYTHROCYTE COUNT: 6.18 x10E6/uL
  HEMATOCRIT: 38.03%
  HEMOGLOBIN: 15.1 G/DL
  LEUKOCYTE COUNT: 12.73 x10E3/uL
  LYMPHOCYTE: 94.67%
  MEAN CORPUSCULAR HEMOGLOBIN: 24.5 pg
  MEAN CORPUSCULAR HEMOGLOBIN CONCENTRATION: 39.83 G/DL
  MEAN CORPUSCULAR VOLUME: 61.5 fL
  MONOCYTE: 1.67%
  NEUTROPHIL: 3.67%
  NUCLEATED RED BLOOD CELLS: 0 /100WBC
  PLATELET COUNT: 1233.67 x10E3/uL
  ALANINE AMINOTRANSFERASE: 57 u/L
  ALBUMIN: 4.07 G/DL
  ALKALINE PHOSPHATASE: 327 u/L
  ASPARTATE AMINOTRANSFERASE: 64.33 u/L
  BLOOD UREA NITROGEN: 11 mg/dL
  CARBON DIOXIDE: 24.33 mmol/L
  CHLORIDE: 103.67 MEQ/L
  CHOLESTEROL: 37 mg/dL
  CREATINE PHOSPHOKINASE: 603.67 u/L
  CREATININE: 0.29 mg/dL
  GLUCOSE: 368.33 mg/dL
  LACTATE DEHYDROGENASE: 191.67 u/L
  LIPASE: 8.67 u/L
  PHOSPHORUS: 12.53 mg/dL
  POTASSIUM: 6.44 MEQ/L
  SODIUM: 143.43 MEQ/L
  TOTAL BILIRUBIN: 0.13 mg/dL
  TOTAL PROTEIN: 5.6 G/DL
  URIC ACID: 2.13 mg/dL
[4]
  ABSOLUTE BASOPHIL: 0 CELLS/uL
  ABSOLUTE EOSINOPHIL: 57.33 CELLS/uL
  ABSOLUTE LYMPHOCYTE: 15898 CELLS/uL
  ABSOLUTE MONOCYTE: 55 CELLS/uL
  ABSOLUTE SEGMENTED NEUTROPHIL: 1089.67 CELLS/uL
  BASOPHIL: 0%
  EOSINOPHIL: 0.33%
  ERYTHROCYTE COUNT: 6.68 x10E6/uL
  HEMATOCRIT: 41.6%
  HEMOGLOBIN: 16.5 G/DL
  LEUKOCYTE COUNT: 17.1 x10E3/uL
  LYMPHOCYTE: 93%
  MEAN CORPUSCULAR HEMOGLOBIN: 24.7 pg
  MEAN CORPUSCULAR HEMOGLOBIN CONCENTRATION: 39.67 G/DL
  MEAN CORPUSCULAR VOLUME: 62.27 fL
  MONOCYTE: 0.33%
  NEUTROPHIL: 6.33%
  NUCLEATED RED BLOOD CELLS: 0 /100WBC
  PLATELET COUNT: 1161 x10E3/uL
  ALANINE AMINOTRANSFERASE: 71 u/L
  ALBUMIN: 4 G/DL
  ALKALINE PHOSPHATASE: 300.33 u/L
  ASPARTATE AMINOTRANSFERASE: 74.33 u/L
  BLOOD UREA NITROGEN: 12.33 mg/dL
  CARBON DIOXIDE: 26.67 mmol/L
  CHLORIDE: 99.67 MEQ/L
  CHOLESTEROL: 30.67 mg/dL
  CREATINE PHOSPHOKINASE: 501.33 u/L
  CREATININE: 0.29 mg/dL
  GLUCOSE: 338.33 mg/dL
  LACTATE DEHYDROGENASE: 199 u/L
  LIPASE: 8.67 u/L
  PHOSPHORUS: 11.53 mg/dL
  POTASSIUM: 6.37 MEQ/L
  SODIUM: 141.3 MEQ/L
  TOTAL BILIRUBIN: 0.2 mg/dL
  TOTAL PROTEIN: 5.53 G/DL
  URIC ACID: 2.07 mg/dL
